System: Tunicamycin induced ISR (ATF4 signal ratio between nucleus and cytoplasm) in wild-type HEK293 cells
Assay: HEK-ATF4 High Content Imaging assay
Format: cell-based
Conditions: Homo sapiens, prevention of Tunicamycin induced ISR, 6 h incubation, ATF4 immunofluorescence nucleus/cytoplasm ratio
Procedure: HEK-ATF4 High Content Imaging Assay
Example compounds were tested in the HEK-ATF4 High Content Imaging assay to assess their pharmacological potency to prevent Tunicamycin induced ISR. Wild-type HEK293 cells were plated in 384-well imaging assay plates at a density of 12,000 cells per well in growth medium (containing DMEM/F12, 10% FBS, 2 mM L-Glutamine, 100 U/mL Penicillin—100 μg/mL Streptomycin) and incubated at 37° C., 5% CO2. 24 h later, the medium was changed to 50 μL assay medium per well (DMEM/F12, 0.3% FBS, 2 mM L-Glutamine, 100 U/mL Penicillin—100 μg/mL Streptomycin). Example compounds were serially diluted in DMSO, spotted into intermediate plates and prediluted with assay medium containing 3.3 μM Tunicamycin to give an 11-fold excess of final assay concentration. In addition to the example compound testing area, the plates also contained multiples of control wells for assay normalization purposes, wells containing Tunicamycin but no example compounds (High control), as well as wells containing neither example compound nor Tunicamycin (Low control). The assay was started by transferring 5 μL from the intermediate plate into the assay plates, followed by incubation for 6 h at 37° C., 5% CO2. Subsequently, cells were fixed (4% PFA in PBS, 20 min at r.t.) and submitted to indirect ATF4 immunofluorescence staining (primary antibody rabbit anti ATF4, clone D4B8, Cell Signaling Technologies; secondary antibody Alexa Fluor 488 goat anti-rabbit IgG (H+L), Thermofisher Scientific). Nuclei were stained using Hoechst dye (Thermofisher Scientific), and plates were imaged on an Opera Phenix High Content imaging platform equipped with 405 nm and 488 nm excitation. Finally, images were analyzed using script based algorithms. The main readout HEK-ATF4 monitored the ATF4 signal ratio between nucleus and cytoplasm. Tunicamycin induced an increase in the overall ATF4 ratio signal, which was prevented by ISR modulating example compounds. In addition, HEK-CellCount readout was derived from counting the number of stained nuclei corresponding to healthy cells. This readout served as an internal toxicity control.

Row | Structure (SMILES) | IC50
1 | O=C(N[C@H]1CC[C@H](c2nnc(OCCOC(F)(F)F)o2)NC1)c1ccc(Cl)c(Cl)c1 [Example 17, 3,4-dichloro-N-[(3S,6R)-6-{5-[2-(trifluoromethoxy)ethoxy]-1,3,4-oxadiazol-2-yl}piperidin-3-yl]benzamide] | 0.5 to 2 µM
2 | Cn1c(C(=O)N[C@H]2CC[C@H](c3nnc(OCCOC(F)(F)F)o3)NC2)cc2cc(C(F)(F)F)ccc21 [Example 22, 1-methyl-N-[(3S,6R)-6-{5-[2-(trifluoromethoxy)ethoxy]-1,3,4-oxadiazol-2-yl}piperidin-3-yl]-5-(trifluoromethyl)-1H-indole-2-carboxamide] | 0.5 to 2 µM
3 | O=C(N[C@H]1CC[C@H](c2nnc(OCCOC(F)(F)F)o2)NC1)c1ccc(Cl)c(Cl)n1 [Example 39, 5,6-dichloro-N-[(3S,6R)-6-{5-[2-(trifluoromethoxy)ethoxy]-1,3,4-oxadiazol-2-yl}piperidin-3-yl]pyridine-2-carboxamide] | 2 to 15 µM
4 | O=C(N[C@@H]1CC[C@@H](c2nnc(OCCOC(F)(F)F)o2)NC1)c1ccc(Cl)c(Cl)c1 [Example 54, 3,4-dichloro-N-[(3R,6S)-6-[5-[2-(trifluoromethoxy)ethoxy]-1,3,4-oxadiazol-2-yl]-3-piperidyl]benzamide] | 0.5 to 2 µM
5 | O=C(N[C@H]1CC[C@H](c2nnc(OCCOC(F)(F)F)o2)NC1)c1ccc(Cl)c(C(F)(F)F)c1 [Example 37, 4-chloro-N-[(3S,6R)-6-{5-[2-(trifluoromethoxy)ethoxy]-1,3,4-oxadiazol-2-yl}piperidin-3-yl]-3-(trifluoromethyl)benzamide] | 2 to 15 µM
6 | O=C(N[C@H]1CC[C@H](c2nnc(OCCOC(F)(F)F)o2)NC1)c1ccc(Cl)cc1 [Example 18, 4-chloro-N-[(3S,6R)-6-{5-[2-(trifluoromethoxy)ethoxy]-1,3,4-oxadiazol-2-yl}piperidin-3-yl]benzamide] | 2 to 15 µM
7 | O=C(N[C@H]1CC[C@H](c2nnc(OCCOC(F)(F)F)o2)NC1)c1ccc(OC(F)(F)F)cc1 [Example 29, 4-(trifluoromethoxy)-N-[(3S,6R)-6-{5-[2-(trifluoromethoxy)ethoxy]-1,3,4-oxadiazol-2-yl}piperidin-3-yl]benzamide] | 0.001 to 0.5 µM
8 | O=C(N[C@H]1CC[C@H](c2nnc(OCCOC(F)(F)F)o2)NC1)c1ccc(OCC(F)(F)F)nc1 [Example 13, 6-(2,2,2-trifluoroethoxy)-N-[(3S,6R)-6-{5-[2-(trifluoromethoxy)ethoxy]-1,3,4-oxadiazol-2-yl}piperidin-3-yl]pyridine-3-carboxamide] | 2 to 15 µM
9 | O=C(N[C@H]1CC[C@H](c2nnc(OCCOC(F)(F)F)o2)NC1)c1cccc(Cl)c1 [Example 23, 3-chloro-N-[(3S,6R)-6-{5-[2-(trifluoromethoxy)ethoxy]-1,3,4-oxadiazol-2-yl}piperidin-3-yl]benzamide] | 2 to 15 µM
10 | O=C(N[C@H]1CC[C@H](c2nnc(OC/C=C/C(F)(F)F)o2)NC1)c1cnc2cc(Cl)ccc2c1 [Example 48, 7-chloro-N-[(3S,6R)-6-[5-[(E)-4,4,4-trifluorobut-2-enoxy]-1,3,4-oxadiazol-2-yl]-3-piperidyl]quinoline-3-carboxamide] | 0.001 to 0.5 µM
11 | O=C(N[C@H]1CC[C@H](c2nnc([C@H]3C[C@@H](OC(F)(F)F)C3)o2)NC1)c1cnc2cc(Cl)ccc2c1 [Example 51, 7-chloro-N-[(3S,6R)-6-{5-[(1s,3s)-3-(trifluoromethoxy)cyclobutyl]-1,3,4-oxadiazol-2-yl}piperidin-3-yl]quinoline-3-carboxamide] | 0.001 to 0.5 µM
12 | Cc1ccc(C(=O)N[C@H]2CC[C@H](c3nnc(OCCOC(F)(F)F)o3)NC2)cc1Cl [Example 44, 3-chloro-4-methyl-N-[(3S,6R)-6-[5-[2-(trifluoromethoxy)ethoxy]-1,3,4-oxadiazol-2-yl]-3-piperidyl]benzamide] | 0.5 to 2 µM
13 | O=C(N[C@H]1CC[C@H](c2nnc(OCCOC(F)(F)F)o2)NC1)C1=Cc2ccc(Cl)cc2OC1 [Example 4, 7-chloro-N-[(3S,6R)-6-{5-[2-(trifluoromethoxy)ethoxy]-1,3,4-oxadiazol-2-yl}piperidin-3-yl]-2H-chromene-3-carboxamide] | 0.001 to 0.5 µM
14 | O=C(N[C@H]1CC[C@H](c2nnc(OCCOC(F)(F)F)o2)NC1)c1ccc(C(F)(F)F)c(F)c1 [Example 33, 3-fluoro-N-[(3S,6R)-6-{5-[2-(trifluoromethoxy)ethoxy]-1,3,4-oxadiazol-2-yl}piperidin-3-yl]-4-(trifluoromethyl)benzamide] | 0.5 to 2 µM
15 | O=C(N[C@H]1CC[C@H](c2nnc(OCCOC(F)(F)F)o2)NC1)c1cc2cc(Cl)ccc2o1 [Example 9, 5-chloro-N-[(3S,6R)-6-{5-[2-(trifluoromethoxy)ethoxy]-1,3,4-oxadiazol-2-yl}piperidin-3-yl]-1-benzofuran-2-carboxamide] | 0.001 to 0.5 µM
16 | O=C(N[C@H]1CC[C@H](c2nnc(OCCOC(F)(F)F)o2)NC1)c1ccc(Cl)c(OC(F)(F)F)c1 [Example 40, 4-chloro-3-(trifluoromethoxy)-N-[(3S,6R)-6-{5-[2-(trifluoromethoxy)ethoxy]-1,3,4-oxadiazol-2-yl}piperidin-3-yl]benzamide] | 2 to 15 µM
17 | Cc1cc(C(=O)N[C@H]2CC[C@H](c3nnc(OCCOC(F)(F)F)o3)NC2)ccc1Cl [Example 31, 4-chloro-3-methyl-N-[(3S,6R)-6-{5-[2-(trifluoromethoxy)ethoxy]-1,3,4-oxadiazol-2-yl}piperidin-3-yl]benzamide] | 2 to 15 µM
18 | O=C(N[C@H]1CC[C@H](c2nnc(OCCOC(F)(F)F)o2)NC1)c1ccc(C(F)(F)F)c(Cl)c1 [Example 36, 3-chloro-N-[(3S,6R)-6-{5-[2-(trifluoromethoxy)ethoxy]-1,3,4-oxadiazol-2-yl}piperidin-3-yl]-4-(trifluoromethyl)benzamide] | 2 to 15 µM
19 | O=C(N[C@H]1CC[C@H](c2nnc(OCCOC(F)(F)F)o2)NC1)c1cc2cc(Cl)ccn2n1 [Example 12, 5-chloro-N-[(3S,6R)-6-{5-[2-(trifluoromethoxy)ethoxy]-1,3,4-oxadiazol-2-yl}piperidin-3-yl]pyrazolo[1,5-a]pyridine-2-carboxamide] | 0.5 to 2 µM
20 | Cc1ccc(C(=O)N[C@H]2CC[C@H](c3nnc(OCCOC(F)(F)F)o3)NC2)cc1C [Example 25, 3,4-dimethyl-N-[(3S,6R)-6-{5-[2-(trifluoromethoxy)ethoxy]-1,3,4-oxadiazol-2-yl}piperidin-3-yl]benzamide] | 2 to 15 µM
21 | O=C(N[C@H]1CC[C@H](c2nnc(OCCOC(F)(F)F)o2)NC1)c1ccc2c(c1)OC(F)(F)O2 [Example 30, 2,2-difluoro-N-[(3S,6R)-6-{5-[2-(trifluoromethoxy)ethoxy]-1,3,4-oxadiazol-2-yl}piperidin-3-yl]-2H-1,3-benzodioxole-5-carboxamide] | 0.5 to 2 µM
22 | O=C(N[C@H]1CC[C@H](c2nnc(-c3ccc(Cl)cc3)o2)NC1)c1cnc2cc(Cl)ccc2c1 [Example 46, 7-chloro-N-[(3S,6R)-6-[5-(4-chlorophenyl)-1,3,4-oxadiazol-2-yl]-3-piperidyl]quinoline-3-carboxamide] | 0.001 to 0.5 µM
23 | O=C(N[C@H]1CC[C@H](c2nnc(OCCOC(F)(F)F)o2)NC1)c1ccc2cc(C(F)(F)F)ccc2n1 [Example 2, N-[(3S,6R)-6-{5-[2-(trifluoromethoxy)ethoxy]-1,3,4-oxadiazol-2-yl}piperidin-3-yl]-6-(trifluoromethyl)quinoline-2-carboxamide] | 0.001 to 0.5 µM
24 | O=C(N[C@@H]1CC[C@@H](c2nnc([C@H]3C[C@@H](OC(F)(F)F)C3)o2)NC1)c1cnc2cc(Cl)ccc2c1 [Example 52, 7-chloro-N-[(3R,6S)-6-{5-[(1s,3s)-3-(trifluoromethoxy)cyclobutyl]-1,3,4-oxadiazol-2-yl}piperidin-3-yl]quinoline-3-carboxamide] | 0.001 to 0.5 µM
25 | O=C(N[C@H]1CC[C@H](c2nnc(OCCOC(F)(F)F)o2)NC1)c1ccc2cc(Cl)cnc2c1 [Example 10, 3-chloro-N-[(3S,6R)-6-{5-[2-(trifluoromethoxy)ethoxy]-1,3,4-oxadiazol-2-yl}piperidin-3-yl]quinoline-7-carboxamide] | 0.5 to 2 µM
26 | O=C(N[C@H]1CC[C@H](c2nnc(OCCOC(F)(F)F)o2)NC1)c1ncc2cc(Cl)ccc2n1 [Example 6, 6-chloro-N-[(3S,6R)-6-{5-[2-(trifluoromethoxy)ethoxy]-1,3,4-oxadiazol-2-yl}piperidin-3-yl]quinazoline-2-carboxamide] | 0.001 to 0.5 µM
27 | O=C(N[C@H]1CC[C@H](c2nnc(OCCOC(F)(F)F)o2)NC1)c1cc2cc(Cl)ccn2c1 [Example 20, 7-chloro-N-[(3S,6R)-6-{5-[2-(trifluoromethoxy)ethoxy]-1,3,4-oxadiazol-2-yl}piperidin-3-yl]indolizine-2-carboxamide] | 0.001 to 0.5 µM
28 | O=C(N[C@H]1CC[C@H](c2nnc(OCCOC(F)(F)F)o2)NC1)c1cc2ccc(Cl)cc2cn1 [Example 5, 7-chloro-N-[(3S,6R)-6-{5-[2-(trifluoromethoxy)ethoxy]-1,3,4-oxadiazol-2-yl}piperidin-3-yl]isoquinoline-3-carboxamide] | 0.5 to 2 µM

— patent US20230391763A1, “MODULATORS OF THE INTEGRATED STRESS RESPONSE PATHWAY” (Evotec International GmbH, priority 2020, published 2023)
